According to ChEMBL document CHEMBL1201862, “PubChem BioAssay data set” (2004):
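Following 48 hours of exposure in 96-well plates, responses at five concentrations were used to interpolate endpoints linearly. Here, GI50 denotes the concentration required for 50% inhibition of growth.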 Active and inactive are the calls of the source. Cut-off read from the data, not from the text of the source: active = GI50 up to about 1.1 µM and inactive = higher.

Columns and labels:
Experiment in all cases: NCI-60 cell line screen, 48 h
COLO 205 = system: COLO 205
OVCAR-4 = system: OVCAR-4
A549 = system: A549
TK-10 = system: TK-10
HCC 2998 = system: HCC 2998
OVCAR-3 = system: OVCAR-3
CCRF-CEM = system: CCRF-CEM
T47D = system: T47D
HOP-62 = system: HOP-62
NCI-H522 = system: NCI-H522
HCT-116 = system: HCT-116
SNB-19 = system: SNB-19
ACHN = system: ACHN
KM12 = system: KM12
OVCAR-8 = system: OVCAR-8
BT-549 = system: BT-549
HT-29 = system: HT-29
SF-295 = system: SF-295
SNB-75 = system: SNB-75
NCI/ADR-RES = system: NCI/ADR-RES

Measured: GI50

c1ccc(C(NC2CCCCC2NCCNC2CCCCC2NC(c2ccccc2)(c2ccccc2)c2ccccc2)(c2ccccc2)c2ccccc2)cc1 (configuration not stated)
inactive: COLO 205 > 100 µM | OVCAR-4 26.6 µM | A549 64.1 µM | TK-10 90.4 µM | HCC 2998 > 10 µM | OVCAR-3 39.5 µM | CCRF-CEM 42.4 µM | T47D 11.7 µM | HOP-62 34.1 µM | NCI-H522 14.6 µM | HCT-116 20.1 µM | SNB-19 74.6 µM | ACHN 90.2 µM | KM12 57.1 µM | OVCAR-8 29.9 µM | BT-549 17.5 µM | HT-29 > 100 µM | SF-295 > 100 µM

Cc1cc(N(C)C)ccc1/N=N/c1ccc2ncccc2c1
inactive: COLO 205 33.9 µM | A549 > 100 µM | TK-10 25.6 µM | CCRF-CEM 40 µM | SNB-75 25.4 µM | T47D 16.9 µM | NCI-H522 13.3 µM | HCT-116 59.7 µM | SNB-19 28.9 µM | ACHN > 100 µM | NCI/ADR-RES > 100 µM | KM12 66.7 µM | OVCAR-8 > 100 µM | BT-549 35.2 µM | HT-29 35.3 µM | SF-295 > 100 µM

CC1(C)CCN2C(=O)C34CCCC3CC21S4 (configuration not stated)
inactive: COLO 205 > 100 µM | OVCAR-4 > 100 µM | A549 > 100 µM | TK-10 > 100 µM | OVCAR-3 > 100 µM | CCRF-CEM 78 µM | T47D > 100 µM | HOP-62 > 100 µM | NCI-H522 > 100 µM | HCT-116 > 100 µM | SNB-19 > 100 µM | ACHN > 100 µM | NCI/ADR-RES > 100 µM | KM12 > 100 µM | OVCAR-8 > 100 µM | BT-549 > 100 µM | HT-29 > 100 µM | SF-295 > 100 µM

COc1ccc(/C(C)=N/NC(=S)N(C)C)c(O)c1
inactive: COLO 205 2.59 µM | OVCAR-4 2.32 µM | A549 4.52 µM | HCC 2998 24.6 µM | OVCAR-3 4.85 µM | CCRF-CEM 4.49 µM | SNB-75 43.8 µM | T47D 7.48 µM | HOP-62 5.61 µM | NCI-H522 12.9 µM | HCT-116 6.95 µM | SNB-19 22 µM | ACHN 6.41 µM | KM12 4.92 µM | BT-549 18.9 µM | HT-29 3.8 µM | SF-295 4.05 µM

CC[N+]1(C)CCC(O)(c2ccc(OC)cc2)C(C(=O)c2ccc(OC)cc2)C1 (configuration not stated)
inactive: COLO 205 3.15 µM | OVCAR-4 22 µM | A549 19.9 µM | TK-10 4.51 µM | HCC 2998 19.6 µM | OVCAR-3 12.4 µM | CCRF-CEM 2.02 µM | SNB-75 13.7 µM | T47D 13.4 µM | HOP-62 18.9 µM | NCI-H522 1.98 µM | HCT-116 9.27 µM | SNB-19 32.1 µM | ACHN 13.1 µM | KM12 16 µM | OVCAR-8 21 µM | BT-549 16 µM | HT-29 7.03 µM | SF-295 20 µM

Nc1nc(Cl)c(/C=N\O)c(NCC2(CO)CCC2)n1
inactive: COLO 205 30.3 µM | OVCAR-4 27 µM | A549 28.4 µM | TK-10 21.8 µM | HCC 2998 68.7 µM | OVCAR-3 24.2 µM | CCRF-CEM 28.5 µM | SNB-75 59.3 µM | HOP-62 30.6 µM | NCI-H522 14.8 µM | HCT-116 13.7 µM | SNB-19 53.2 µM | ACHN 26.3 µM | NCI/ADR-RES 28.5 µM | KM12 6.25 µM | OVCAR-8 36.2 µM | BT-549 32.6 µM | HT-29 59.3 µM | SF-295 21.2 µM
